Measured values reported in patent publication US5998596A, “Inhibition of protein kinase activity by aptameric action of oligonucleotides” (The United States of America as represented by the …).
Entries after “also recorded” stand apart in the source; their conditions may differ.

Assays:
p145^abl kinase = assay: Immunoprecipitation kinase assay of p145abl; assay type: biochemical
Experimental: (§1) The p210^bcr-abl kinase, src kinase and cdc-2 kinase were immunoprecipitated from K562 cells. The p145^abl kinase was immunoprecipitated from PC3M cells, PDGF receptor kinase from 3T3 cells, and EGF receptor kinase from A431 cells. MAP kinase was utilized as a pure protein and lck kinase was immunoprecipitated from peripheral blood lymphocytes of a normal volunteer.
Cells were washed in phosphate buffered saline (PBS) and 0.5-5×10^6 cells were solubilized in 1 ml of the specified cell lysis buffers. Unless otherwise stated, all cell lysis buffers contained the following protease inhibitors: 20 μg/ml leupeptin, 1 μg/ml aprotinin, and 1 mM phenylmethylsulfonylfluroide. For p210^bcr-abl and […] immunoprecipitation, cells were lysed with ABL lysis buffer (25 mM imidazole, pH 7.2, 0.5% NP40, 50 mM NaCl, 1 mM Na3 VO4) and lysates were clarified at 14,000 g. 4° C. for 30 minutes. Cell lysis for all other proteins was performed according to the references describing the various immunoprecipitation kinase assays.
Immunoprecipitation kinase assays of p210^bcr-abl p145^abl were performed as described, with modifications (15). Briefly, for p210^bcr-abl, 1 μg of anti-bcr antibody (clone 7C6, Oncogene Science, Uniondale, N.Y.) was added to lysates prepared from 0.5-1×10^6 K562 cells. […]

[1] = system: Epidermal growth factor receptor (EGFR); assay: EGFR autophosphorylation immunoprecipitation kinase assay; assay type: biochemical
Source text: as §1
(§2) Epidermal growth factor receptor (EGFR) was immunoprecipitated with 10 ,g anti-EGFR antibody (clone LA1) and human recombinant epidermal growth factor (both from Upstate Biotechnology Inc., Lake Placid, N.Y.). The assay was performed as described (17) but without removing the EGFR from the protein A-antibody solid support. Instead, epidermal growth factor, at a final concentration of 100 nM, was added to the kinase reaction mixture. Platelet derived growth factor receptor (DGFR) was immunoprecipitated with anti-human type A/type B PDGFR antibody (Upstate Biotechnology Inc.) and immune complex kinase assays performed as referenced (18) except that protein A-Sepharose coated with rabbit anti-mouse immunoglobulin was used instead of formalin-fixed Staphylococcus aureus to bind PDGFR-antibody conjugates. C-src was immunoprecipitated with anti-v-src antibody (Ab-1; Oncogene Science) and assayed as previously described (19) with the addition of enolase as exogenous substrate. […]

cdc-2 kinase = cdc-2 kinase assay with dephosphorylated casein; assay type: biochemical, human; details: Cerenkov counting of excised gel slices
Source text: as §1, §2

[2] = system: cellular phosphotyrosine content of K562 cells; assay: Western analysis of total cellular phosphotyrosine content after electroporation of K562 cells; assay type: cell-based, human; details: K562 cells electroporated with 100 μM ODN, one hour later
Experimental: One hundred micrograms of protein from cell lysates were separated on a 7% SDS polyacrylamide gel. Transfer was performed overnight at 50 volts, 4° C., in a 0.2 M glycine, 25 mM Tris, pH 8.3, 0.15% SDS, 20% methanol buffer, onto […] nitrocellulose (Schleicher and Schuell Inc.). For cellular phosphotyrosine blots, Western probing was performed as described previously, with modifications (SARTOR, et al, 1991). Briefly, membranes were blocked for 2 hours with 5% albumin in TTBS (20 mM Tris HCL, pH 7.6; 0.05% Tween 20; 0.9% sodium chloride), probed for 1 hour with antiphosphotyrosine antibody (Upstate Biotechnology Inc., Lake Placid, N.Y.) diluted 1:500 in TTBS, followed by rabbit anti-mouse antibody (Cappel Research Products) and then [^125 I] protein A Sepharose (Amersham Corp., Arlington Heights, Ill.). Membranes were exposed to Kodak X-OMAT AR film overnight at -70° C. with intensifying screens.
Electroporation was performed as described (40). Briefly, 1-5×10^6 cells in 1 ml of RPMI 1640 with 10% fetal calf serum were placed into 0.4 cm gap electroporation chambers and electroporated with a Cell-Porator Electroporation System 1 (all from GIBCO BRL, Grand Island, N.Y.) at 800 microfarrads, 300 volts, at room temperature. Cells were then incubated at 37° C. for 1 hour before manipulation.
In K562 cells p210^bcr-abl is a major kinase responsible for protein tyrosine phosphorylation (38, 39). Changes in enzyme activity are therefore reflected by changes in cellular phosphotyrosine content.

Substance: 5'-GTCCACCATGGCGCGGCCGGC-3' [ODN1] (phosphorothioate caps, further chemistry not given here) [21mer ODN complementary to nucleotides -12 to +9 of the p210bcr-abl mRNA, phosphorothioate capped unless otherwise specified]
- sensitivity of p145^abl compared with p210^bcr-abl (p145^abl kinase): equally sensitive
- IC50 (p145^abl kinase; Cerenkov counting of excised gel slices, mean ± SD): 0.62 ± 0.24 µM
- IC50 ([1]; Cerenkov counting of excised gel slices): > 100 µM
- inhibition of EGF receptor (in words) ([1]; ODN1 concentrations greater than 2 logs above the Ki for p210^bcr-abl): not significantly inhibited
- IC50 (cdc-2 kinase): > 50 µM
- total cellular protein phosphotyrosine content ([2]; listed as BCR-AS): dropped significantly; also recorded: reduced protein phosphotyrosine content
- total cellular protein phosphotyrosine content ([2]; listed as BCR-AS phosphorothioate capped): equally effective
